≈ marks a conversion by molar mass, not a printed value.
test system: MCF7; assay: Cytotoxicity against Homo sapiens (human) MCF7 cells after 48 hr by SRB assay; format: functional, cell-based; settings: MCF7, 48 h

In order of falling IC50:
1. N#Cc1c(-c2ccccc2)cc(N2CCN(c3ccccc3F)CC2)n2c1nc1ccc(C(=O)O)cc12  17.6 µg/mL (≈ 35.9 µM)
2. Cc1cc(=O)n2c([nH]c3ccc(C(=O)O)cc32)c1C#N  14.7 µg/mL (≈ 55 µM)
3. Cc1c(CCO)c(=O)n2c([nH]c3ccc(Cl)cc32)c1C#N  14.6 µg/mL (≈ 48.5 µM)
4. Cc1c(CCN2CCN(c3ccccc3F)CC2)c(N2CCN(c3ccccc3F)CC2)n2c(nc3ccc(Cl)cc32)c1C#N  14 µg/mL (≈ 22.4 µM)
5. Cc1cc(Cl)n2c(nc3ccc(C(=O)O)cc32)c1C#N  12.8 µg/mL (≈ 44.9 µM)
6. Cc1cc(N2CCN(c3ccccc3F)CC2)n2c(nc3ccc(C(=O)O)cc32)c1C#N  12.6 µg/mL (≈ 29.3 µM)
7. Cc1c(CCO)c(=O)n2c([nH]c3ccc(C(=O)O)cc32)c1C#N  10.5 µg/mL (≈ 33.9 µM)
8. N#Cc1c(-c2ccccc2)cc(N2CCN(c3ccccc3F)CC2)n2c1nc1ccc(Cl)cc12  10.4 µg/mL (≈ 21.6 µM)
9. Cc1c(CCN2CCN(c3ccccc3F)CC2)c(N2CCN(c3ccccc3F)CC2)n2c(nc3ccc(C(=O)O)cc32)c1C#N  9.9 µg/mL (≈ 15.6 µM)
10. Cc1c(CCCl)c(Cl)n2c(nc3ccc(C(=O)O)cc32)c1C#N  9.07 µg/mL (≈ 26 µM)
11. Cc1cc(Cl)n2c(nc3ccc(Cl)cc32)c1C#N  8.61 µg/mL (≈ 31.2 µM)
12. Cc1c(CCCl)c(Cl)n2c(nc3ccc(Cl)cc32)c1C#N  7.09 µg/mL (≈ 20.9 µM)
13. Cc1cc(N2CCN(c3ccccc3F)CC2)n2c(nc3ccc(Cl)cc32)c1C#N  5.72 µg/mL (≈ 13.6 µM)
14. N#Cc1c(-c2ccccc2)cc(=O)n2c1[nH]c1ccc(C(=O)O)cc12  3.99 µg/mL (≈ 12.1 µM)
15. N#Cc1c(-c2ccccc2)cc(Cl)n2c1nc1ccc(Cl)cc12  3.89 µg/mL (≈ 11.5 µM)
16. N#Cc1c(-c2ccccc2)cc(Cl)n2c1nc1ccc(C(=O)O)cc12  3.58 µg/mL (≈ 10.3 µM)
17. N#Cc1c(-c2ccccc2)cc(=O)n2c1[nH]c1ccc(Cl)cc12  3.58 µg/mL (≈ 11.2 µM)
18. Cc1cc(=O)n2c([nH]c3ccc(Cl)cc32)c1C#N  3.43 µg/mL (≈ 13.3 µM)

Source: ChEMBL document CHEMBL3045437, “Synthesis of potential anticancer derivatives of pyrido[1,2-a]benzimidazoles” (Med Chem Res, 2012)
